# Experimental data: patent publication US7517874B2 (priority 2007, dated 2009)
# Like-named read-outs stand apart in the source and are kept apart here.
# Assays:
# [1] = target: human CB1 receptor (hCB1) (Homo sapiens, UniProt P21554); assay: cell-based; format: cell-based; conditions: for +/− HCB1: agonist or inverse agonist at hCB1
# Experimental: (§1) The ability of compounds to act as agonists or inverse agonists at human CB2 and CB1 receptors (hCB2, hCB1, respectively) and at the rat CB2 receptor (rCB2) was determined by measuring changes in intracellular cAMP levels. Chinese Hamster Ovary (CHO-K1) cell lines stably expressing hCB2 (Genebank: X74328) or hCB1 (Genebank: X54937) were purchased from Euroscreen (Gosselies, Belgium). The rat CB2 receptor was expressed from genomic DNA (provided by M. Abood, California Pacific Medical Center) in CHO-K1 cells from expression plasmid vector, pcDNA3.1.
# (§2) Cell lines were grown in suspension in EX-CELL 302 CHO Serum-free medium (Sigma, cat #14324C) supplemented with 1% Fetal Bovine Serum, glutamine and non-essential amino-acids under 0.4 mg/mL G418 selection.
# (§3) Receptor mediated responses were determined by measuring changes in intracellular cAMP using LANCE cAMP detection kit (cat #AD0264, Perkin Elmer, Wellesley, Mass.) based on time-resolved fluorescence resonance energy transfer (TR-FRET). Changes in cAMP were determined in cells pre-incubated with IBMX (isobutyl methylxanthine) and prestimulated with NKH-477 (a water soluble forskolin derivative, cat #1603, Tocris, Ellisville, Mo.) to increase basal cAMP levels as detailed below.
# (§4) On the day of the experiment, cells were spun at low speed for 5 min at room temperature. The supernatant was removed and cells were resuspended in stimulation buffer (Hanks Buffered Salt Solution/5 mM HEPES, containing 0.5 mM IBMX (cat #17018, Sigma) and 0.02% BSA (Perkin-Elmer, cat #CR84-100)). Cell clumps were removed by filtering through cell strainer 40 μm (BD Falcon, Discovery Labware, Bedford, Mass.) and diluted to 2×10^5 cells/mL. Antibody supplied with the LANCE cAMP immunoassay kit was then added according to the manufacturer's instructions. An aliquot of cells was taken for un-induced controls. To the remaining cells was added NKH-477 (a water soluble forskolin derivative, Tocris cat #1603) to a final concentration of 2-8 μM. Cells were then incubated for 30 min at room temperature prior to adding to Proxiplates containing test compounds (final DMSO concentration was less than 0.5%) with a Multidrop bulk dispenser, followed by a sixty minute incubation at room temperature. The response was stopped by addition of the detection mix supplied with the LANCE kit. The reagents were allowed to equilibrate for three hours prior to reading on an Envision multi-mode detector (Perkin-Elmer). TR-FRET was measured using a 330-380 nm excitation filter, a 665 nm emission filter, dichroic mirror 380 nm and Z=1 mm. Cyclic AMP concentrations in each well were back-calculated from a cAMP standard curve run concurrently during each assay. Each plate contained 16 wells of forskolin stimulated cells and 16 wells of forskolin plus CP55,940-treated cells. Cells were treated with 1 μM CP55,940 (Tocris cat. #0949). Concentrations of cAMP were expressed as a percent of the difference of these two groups of wells. Concentration-response data including EC50 (the concentration of compound producing 50% of the maximal response) and intrinsic activity (the percent maximal activation compared to full activation by CP55,940) were determined using a four-parameter non-linear regression algorithm (Xlfit equation 251, IDBS).
# rat CB2 receptor (rCB2) = target: T1, rat CB2 receptor (rCB2) (Rattus norvegicus, UniProt Q9QZN9); assay: cell-based; format: cell-based; conditions: for +/− RCB2: agonist or inverse agonist at rCB2
# T1 sequence (Q9QZN9 1-360): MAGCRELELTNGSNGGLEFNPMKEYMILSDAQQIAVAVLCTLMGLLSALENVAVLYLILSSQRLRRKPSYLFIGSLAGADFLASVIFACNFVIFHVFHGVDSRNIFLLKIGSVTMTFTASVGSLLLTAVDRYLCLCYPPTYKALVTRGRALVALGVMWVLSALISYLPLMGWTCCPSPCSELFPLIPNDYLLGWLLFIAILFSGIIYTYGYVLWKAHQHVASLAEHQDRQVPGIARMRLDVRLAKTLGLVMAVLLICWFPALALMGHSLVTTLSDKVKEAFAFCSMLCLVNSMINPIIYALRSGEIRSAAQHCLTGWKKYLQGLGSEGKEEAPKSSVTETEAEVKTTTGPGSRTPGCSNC
# Experimental: as §1, §2, §3, §4
# [2] = groups >100 nM-10 μM and >10 μM, cAMP, CHO-K1 hCB1, read-out: EC50 HCB1
# [3] = groups >100 nM-10 μM and >10 μM, cAMP, CHO-K1 rCB2, read-out: EC50 RCB2
# Sequence of human CB1 receptor (hCB1) (P21554 whole entry): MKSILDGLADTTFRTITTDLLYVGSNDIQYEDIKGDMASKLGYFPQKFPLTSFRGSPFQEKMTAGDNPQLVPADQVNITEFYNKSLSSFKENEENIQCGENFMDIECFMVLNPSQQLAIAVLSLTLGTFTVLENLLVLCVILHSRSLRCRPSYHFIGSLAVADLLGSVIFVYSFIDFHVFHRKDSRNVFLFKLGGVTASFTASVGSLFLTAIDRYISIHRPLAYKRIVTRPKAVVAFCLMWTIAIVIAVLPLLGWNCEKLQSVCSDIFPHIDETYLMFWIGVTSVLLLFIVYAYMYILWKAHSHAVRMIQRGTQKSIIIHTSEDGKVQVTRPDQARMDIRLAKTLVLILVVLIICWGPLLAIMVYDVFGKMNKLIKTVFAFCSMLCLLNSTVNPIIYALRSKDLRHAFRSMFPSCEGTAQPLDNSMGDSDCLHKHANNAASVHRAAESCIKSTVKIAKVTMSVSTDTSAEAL
Compound,EC50 [1],+/− RCB2 (rat CB2 receptor (rCB2)),also measured
"CNC(=O)[C@@H](NC(=O)c1nc(/C=C/CN2CCOCC2)n2c1CN(C)CC2)C(C)(C)C [Compound 286, (S,E)-N-(3,3-dimethyl-1-(methylamino)-1-oxobutan-2-yl)-7-methyl-3-(3-morpholinoprop-1-enyl)-5,6,7,8-tetrahydroimidazo[1,5-a]pyrazine-1-carboxamide]",> 10000 nM,+,
"CNC(=O)[C@@H](NC(=O)c1nc(C2CCCCO2)n2c1CN(C)CCC2)C(C)(C)C (stereo partly drawn) [Compound 504, N-((S)-3,3-dimethyl-1-(methylamino)-1-oxobutan-2-yl)-8-methyl-3-(tetrahydro-2H-pyran-2-yl)-6,7,8,9-tetrahydro-5H-imidazo[1,5-a][1,4]diazepine-1-carboxamide]",> 10000 nM,+,
"CN1CCCn2c(-c3ccc(F)c(Cl)c3)nc(C(=O)N[C@@H](CC(C)(C)C)C(N)=O)c2C1 [Compound 587, (S)-N-(1-amino-4,4-dimethyl-1-oxopentan-2-yl)-3-(3-chloro-4-fluorophenyl)-8-methyl-6,7,8,9-tetrahydro-5H-imidazo[1,5-a][1,4]diazepine-1-carboxamide]",,+,+/− HCB1 [1]: +
"CNC(=O)[C@@H](NC(=O)c1nc(-c2cc(C(N)=O)ccc2F)n2c1CN(C)CCC2)C(C)(C)C [Compound 405, (S)-3-(5-carbamoyl-2-fluorophenyl)-N-(3,3-dimethyl-1-(methylamino)-1-oxobutan-2-yl)-8-methyl-6,7,8,9-tetrahydro-5H-imidazo[1,5-a][1,4]diazepine-1-carboxamide]",,,"EC50 [1, 2]: > 10000 nM; EC50 (rat CB2 receptor (rCB2); [3]): > 10000 nM"
"CNC(=O)[C@H](CC(C)C)NC(=O)c1nc(-c2ccc(F)cc2)n2c1CN(C)CCC2 [Compound 530, (S)-3-(4-fluorophenyl)-8-methyl-N-(4-methyl-1-(methylamino)-1-oxopentan-2-yl)-6,7,8,9-tetrahydro-5H-imidazo[1,5-a][1,4]diazepine-1-carboxamide]",> 10000 nM,+,
"CNC(=O)[C@@H](NC(=O)c1nc(-c2ccc(Cl)cc2F)n2c1CN(C)CC2)C(C)(C)C [Compound 241, (S)-3-(4-chloro-2-fluorophenyl)-N-(3,3-dimethyl-1-(methylamino)-1-oxobutan-2-yl)-7-methyl-5,6,7,8-tetrahydroimidazo[1,5-a]pyrazine-1-carboxamide]",> 10000 nM,−,
"CNC(=O)[C@@H](NC(=O)c1nc(-c2ccccc2)n2c1CN(Cc1ccco1)CC2)C(C)(C)C [Compound 64, (S)-N-(3,3-dimethyl-1-(methylamino)-1-oxobutan-2-yl)-7-(furan-2-ylmethyl)-3-phenyl-5,6,7,8-tetrahydroimidazo[1,5-a]pyrazine-1-carboxamide]",> 10000 nM,−,
"CNC(=O)[C@@H](NC(=O)c1nc(/C=C/CCO)n2c1CN(C)CCC2)C(C)(C)C [Compound 514, (S,E)-N-(3,3-dimethyl-1-(methylamino)-1-oxobutan-2-yl)-3-(4-hydroxybut-1-enyl)-8-methyl-6,7,8,9-tetrahydro-5H-imidazo[1,5-a][1,4]diazepine-1-carboxamide]",,+,+/− HCB1 [1]: +
"CC(C)CN1CCn2c(-c3ccccc3)nc(C(=O)NC3C4(C)CCC(C4)C3(C)C)c2C1 (centres unmarked) [Compound 142, 7-isobutyl-3-phenyl-N-(1,3,3-trimethylbicyclo[2.2.1]heptan-2-yl)-5,6,7,8-tetrahydroimidazo[1,5-a]pyrazine-1-carboxamide]",> 10000 nM,−,
"CNC(=O)[C@@H](NC(=O)c1nc(/C=C/CN(C)C)n2c1CN(C)CCC2)C(C)(C)C [Compound 513, (S,E)-N-(3,3-dimethyl-1-(methylamino)-1-oxobutan-2-yl)-3-(3-(dimethylamino)prop-1-enyl)-8-methyl-6,7,8,9-tetrahydro-5H-imidazo[1,5-a][1,4]diazepine-1-carboxamide]",> 10000 nM,−,
"CC(CO)NC(=O)c1nc(-c2ccccc2)n2c1CN(C)CC2 (centres unmarked) [Compound 231, N-(1-hydroxypropan-2-yl)-7-methyl-3-phenyl-5,6,7,8-tetrahydroimidazo[1,5-a]pyrazine-1-carboxamide]",,,"EC50 [1, 2]: > 10000 nM; EC50 (rat CB2 receptor (rCB2); [3]): > 10000 nM"
"CNC(=O)[C@@H](NC(=O)c1nc(-c2cccc(OC)c2F)n2c1CN(C)CCC2)C(C)(C)C [Compound 346, (S)-N-(3,3-dimethyl-1-(methylamino)-1-oxobutan-2-yl)-3-(2-fluoro-3-methoxyphenyl)-8-methyl-6,7,8,9-tetrahydro-5H-imidazo[1,5-a][1,4]diazepine-1-carboxamide]",> 10000 nM,−,
"CN1CCCn2c(-c3ccc(F)c(Cl)c3)nc(C(=O)N[C@H](C(N)=O)C(C)(C)C)c2C1 [Compound 576, (S)-N-(1-amino-3,3-dimethyl-1-oxobutan-2-yl)-3-(3-chloro-4-fluorophenyl)-8-methyl-6,7,8,9-tetrahydro-5H-imidazo[1,5-a][1,4]diazepine-1-carboxamide]",,+,+/− HCB1 [1]: +
"CCNC(=O)[C@@H](NC(=O)c1nc(-c2ccccc2)n2c1CN(C)CCC2)C(C)(C)C [Compound 478, (S)-N-(1-(ethylamino)-3,3-dimethyl-1-oxobutan-2-yl)-8-methyl-3-phenyl-6,7,8,9-tetrahydro-5H-imidazo[1,5-a][1,4]diazepine-1-carboxamide]",> 10000 nM,+,
"CC(C)CCNC(=O)c1nc(-c2ccc(Cl)cc2)n2c1CN(CCO)CC2 [Compound 159, 3-(4-chlorophenyl)-7-(2-hydroxyethyl)-N-isopentyl-5,6,7,8-tetrahydroimidazo[1,5-a]pyrazine-1-carboxamide]",,−,"EC50 [1, 2]: > 10000 nM"
"CCc1nc(C(=O)N[C@H](C(=O)NC)C(C)(C)C)c2n1CCCN(C)C2 [Compound 492, (S)-N-(3,3-dimethyl-1-(methylamino)-1-oxobutan-2-yl)-3-ethyl-8-methyl-6,7,8,9-tetrahydro-5H-imidazo[1,5-a][1,4]diazepine-1-carboxamide]",> 10000 nM,−,
"CNC(=O)[C@@H](NC(=O)c1nc(-c2cccc(F)c2)n2c1CNCC2)C(C)(C)C [Compound 4, (S)-N-(3,3-dimethyl-1-(methylamino)-1-oxobutan-2-yl)-3-(3-fluorophenyl)-5,6,7,8-tetrahydroimidazo[1,5-a]pyrazine-1-carboxamide]",> 10000 nM,,EC50 (rat CB2 receptor (rCB2)): > 10000 nM
"C/C=C/c1nc(C(=O)N[C@H](C(=O)NC)C(C)(C)C)c2n1CCCN(C)C2 [Compound 376, (S,E)-N-(3,3-dimethyl-1-(methylamino)-1-oxobutan-2-yl)-8-methyl-3-(prop-1-enyl)-6,7,8,9-tetrahydro-5H-imidazo[1,5-a][1,4]diazepine-1-carboxamide]",> 10000 nM,+,
"CNC(=O)[C@@H](NC(=O)c1nc(-c2ccc(F)cc2F)n2c1CN(C)CCC2)C(C)(C)C [Compound 355, (S)-3-(2,4-difluorophenyl)-N-(3,3-dimethyl-1-(methylamino)-1-oxobutan-2-yl)-8-methyl-6,7,8,9-tetrahydro-5H-imidazo[1,5-a][1,4]diazepine-1-carboxamide]",,+,+/− HCB1 [1]: +
